Series [1] can be described thus: Hygroscopicity test. In kind it is physicochemical. Conditions: 25° C., RH80%, 24 hours, hydrobromide. Here is the method: An appropriate amount of a test product is taken and spread in a glass-stoppered weighing bottle that has been placed in an artificial climate box (temperature is 25° C.±1° C., relative humidity is 80%±2%) for 24 hours. The weighing bottle is opened, put together with the stopper in the artificial climate box (the temperature is 25° C.±1° C., the relative humidity is 80%±2%) for 24 hours, and then taken out. The moisture content of the test product before and after being placed in the artificial climate box is measured, and the hygroscopicity is measured by comparing the change in moisture content.

The format of series [2] is physicochemical. Conditions: 7 days. As for the experimental part:
The test product is placed in suitable clean containers, and then placed under conditions of high temperature (80° C.), high humidity (25° C., relative humidity 92.5%), and light (light intensity 4500±500 1× and 90 μw/cm^2), respectively, for 7 days, and samples are taken on the 7th day and tested according to the stability inspection items.

The nature of series [3]: physchem. In kind it is physicochemical. Conditions: 37 °C, water, thermodynamic from solid, Solubility in water. As for the experimental part:
About 10 mg of the test product is taken and put in a 1.5 mL sample tube, to which 1 mL of deionized water is added, and then the sample tube is placed in a constant temperature mixer and shaken at 37° C. for 30 minutes; after shaking, the sample tube is placed in a centrifuge to undergo centrifugation for 2 minutes. Then, 500 μL of the supernatant is taken and diluted with acetonitrile to an appropriate concentration, which is used as a test sample solution for HPLC analysis.
An appropriate amount of sample was weighed and put in a glass test tube, to which a selected solvent was gradually added. The clarification process was observed.

Series [4] in a line: Toxicity test of a single intragastric administration to SD rats. In kind it is in vivo. Conditions: both sexes, Sprague-Dawley (SD), rat, in vivo, po. As for the experimental part: (§1) The safety of the hydrobromide of Compound Z in SD rats and beagle dogs was evaluated in accordance with the “Good Laboratory Practice” (2017) issued by the National Medical Products Administration (NMPA), and the acute toxicity test and 14-day long-term toxicity test were carried out, respectively.
(§2) Method: 40 SD rats were randomly divided into 4 groups, 10 rats in each group, half male and half female. The rats were given a single intragastric administration of a solvent of PEG400/Kolliphor® HS 15/ultrapure water (40/10/50, v/v/v) and the hydrobromide of Compound Z (200, 600 and 2000 mg/kg, based on the free base) dissolved in this solvent, respectively. After administration, observation was continued for 14 days, and dissection was performed on the 15th day as planned. During the test, clinical observations, body weight, feed consumption and anatomical and morphological observations by naked eyes were evaluated.

The test system of series [5] is SD rats. The description is as above. Type of series: in vivo. Conditions: SD rats, single intragastric 200, 600 and 2000 mg/kg, 14 days observation. As for the experimental part: as §1, §2
Series [6] is described as follows: Toxicity test of a single intragastric administration to beagle dogs. Conditions: both sexes, beagle, dog, in vivo, po. In kind it is in vivo. Here is the method: as §1
(§3) Method: 8 beagle dogs were randomly divided into 4 groups, 2 dogs in each group, one male and one female. The dogs were given a single intragastric administration of a solvent of PEG400/Kolliphor® HS 15/ultrapure water (40/10/50, v/v/v) and the hydrobromide of Compound Z (50, 250 and 1000 mg/kg, based on the free base) dissolved in this solvent, respectively. After administration, observation was continued for 14 days, and dissection was performed on the 15th day as planned. Clinical observations, body weight, feed consumption, clinical pathology (blood, blood coagulation, plasma biochemistry), and morphological observation by naked eyes were evaluated.

The test system of series [7] is beagle dogs. The description is as above. In kind it is in vivo. Conditions: beagle dogs, single intragastric 50, 250 and 1000 mg/kg. Here is the method: as §1, §3
Series [8] can be described thus: in vivo. Also noted: species or system SD rats. Conditions: both sexes, Sprague-Dawley (SD), rat, po. Here is the method:
as §1
(§4) Method: 120 SD rats were randomly divided into 4 groups, 30 rats in each group, half male and half female. The rats were given an intragastric administration of a solvent of PEG400/Kolliphor® HS15/ultrapure water (40/10/50, v/v/v) and the hydrobromide (100, 300 and 600 mg/kg) of Compound Z dissolved in the solvent, respectively, once a day for 14 consecutive days; two-thirds of the animals in each group (20 animals in each group, half male and half female) were dissected after the end of the administration period (day 15); the remaining animals in each group (10 animals in each group, half male and half female) were dissected at the end of the 14-day recovery period (day 29). The following indexes were observed, measured and evaluated: clinical observations, body weight, feed consumption, ophthalmological examination, hematology, blood coagulation, plasma biochemistry and plasma electrolytes, urinalysis, anatomical and morphological observation by naked eyes, organ weight and histopathological examination, and the accompanying rat bone marrow micronucleus test.

In series [9] the test system is SD rats. As to the kind of experiment: in vivo. Conditions: both, Sprague-Dawley (SD), rat, 600 mg/kg, 14 days. As for the experimental part: as §1, §4
Series [10] can be described thus: Toxicity test of beagle dogs by intragastric administration for 14 days and drug withdrawal for 14 days. Type of series: in vivo. Conditions: both sexes, dog, in vivo, po; beagle dogs, males and females, intragastric once a day for 14 consecutive days, 14 days recovery; read-out: no-observed-adverse-effect level (NOAEL). Here is the method: as §1
(§5) Test method: 40 beagle dogs were randomly divided into 4 groups, 10 dogs in each group, half male and half female. The dogs were given an intragastric administration of a solvent of PEG400/Kolliphor® HS15/ultrapure water (40/10/50, v/v/v) and the hydrobromide (30, 100 and 250 mg/kg) of Compound Z dissolved in the solvent, respectively, once a day for 14 consecutive days; three-fifths of the animals in each group (6 animals in each group, half male and half female) were dissected after the end of the administration period (day 15); the remaining animals in each group (4 animals in each group, half male and half female) were dissected at the end of the 14-day recovery period (day 29). The following indexes were observed, measured and evaluated: clinical observations, ophthalmological examination, body weight, feed consumption, body temperature, electrocardiogram (HR, PR interval, QRS interval, T wave amplitude, QT interval and QTcV interval), clinical Pathology (hematology, blood coagulation, plasma biochemistry, urine), pathological examination (morphological observation by naked eyes, organ weight, histopathological examination).

Series [11] has as its system beagle dogs. Described as above. Type of series: in vivo. As for the experimental part: as §1, §5
The mark [12] stands for this setting: listed as Hydrobromide of Compound Z with crystal form A.

A word on the solubility: it is the concentration that dissolves in the medium under given conditions. Higher therefore signals much dissolved substance. The NOAEL is the highest tested level that showed no adverse finding.

Regarding `Br.[2H]c1cc([C@]2(C#N)O[C@H](COC(=O)C(C)C)[C@@H](OC(=O)C(C)C)[C@H]2OC(=O)C(C)C)n2ncnc(N)c12` [Hydrobromide of Compound Z, (2R,3R,4R,5R)-2-(4-aminopyrrolo[2,1-f][1,2,4]triazin-7-yl-5-d)-2-cyano-5-(isobutyryloxymethyl)tetrahydrofuran-3,4-diyl bis(2-methylpropanoate) hydrobromide], the Hygroscopicity result in series [1] is “None”; in series [1] (setting [12]), “no hygroscopicity”; in series [1] (listed as hydrobromide of Compound Z with crystal form A), “no hygroscopicity”; in series [1] (listed as hydrobromide of Compound Z), “no hygroscopicity”. The “increase in moisture content” value in series [1] was “no increase”; in series [1] (setting [12]) it was “RH80%, with an increase in moisture content of <0.1%,”. The Stability result in series [2] is recorded as “Good stability under high temperature (80° C.), high”. The same compound came in with a solubility at 30 min in [3] of 410 µg/mL. Moreover, the MTD at 14 days was not below 2000 mg/kg in [4] and not below 1000 mg/kg in [6]. Moreover, the “early death or euthanasia” value in series [5] was “no early death or euthanasia”. In addition, the accidental death entry in series [7] is on record as “no accidental death”; in series [11] (beagle dogs, 30, 100 and 250 mg/kg intragastric once a day for 14 days) it was “no accidental death”. For the same compound, the NOAEL at 14 days in series [8] is 100 mg/kg; in series [10], 30 mg/kg. For the same compound, in series [9], the death result is “two animals in the 600 mg/kg dose group died”. Also, the adverse drug reactions entry in [11] (beagle dogs, 250 mg/kg and 100 mg/kg intragastric once a day for 14 days) is “adverse drug reactions in ophthalmological examination, clinical pathology, pathological examination, and the like could be observed”. In series [11] (beagle dogs, after 14-day recovery period), the “various indexes at the end of the recovery period” value is on record as “returned to normal or showed a recovery trend”.

Values taken from US20230312584A1, “SALT OF NUCLEOSIDE ANALOG, AND CRYSTAL FORM, PHARMACEUTICAL COMPOSITION AND USE THEREOF” (priority 2020, published 2023).
